In general, melting point refers to the temperature, or range, at which the solid turns liquid. Usually IC50 stands for the concentration at which inhibition is half-maximal.

The target of one data set is T1, progesterone receptor (Homo sapiens, UniProt P06401).
T1 construct: determining a compound's effect on alkaline phosphatase activity in T47D cells; endogenous in cells; host or cells: T47D cells
T1 sequence (P06401 1-933): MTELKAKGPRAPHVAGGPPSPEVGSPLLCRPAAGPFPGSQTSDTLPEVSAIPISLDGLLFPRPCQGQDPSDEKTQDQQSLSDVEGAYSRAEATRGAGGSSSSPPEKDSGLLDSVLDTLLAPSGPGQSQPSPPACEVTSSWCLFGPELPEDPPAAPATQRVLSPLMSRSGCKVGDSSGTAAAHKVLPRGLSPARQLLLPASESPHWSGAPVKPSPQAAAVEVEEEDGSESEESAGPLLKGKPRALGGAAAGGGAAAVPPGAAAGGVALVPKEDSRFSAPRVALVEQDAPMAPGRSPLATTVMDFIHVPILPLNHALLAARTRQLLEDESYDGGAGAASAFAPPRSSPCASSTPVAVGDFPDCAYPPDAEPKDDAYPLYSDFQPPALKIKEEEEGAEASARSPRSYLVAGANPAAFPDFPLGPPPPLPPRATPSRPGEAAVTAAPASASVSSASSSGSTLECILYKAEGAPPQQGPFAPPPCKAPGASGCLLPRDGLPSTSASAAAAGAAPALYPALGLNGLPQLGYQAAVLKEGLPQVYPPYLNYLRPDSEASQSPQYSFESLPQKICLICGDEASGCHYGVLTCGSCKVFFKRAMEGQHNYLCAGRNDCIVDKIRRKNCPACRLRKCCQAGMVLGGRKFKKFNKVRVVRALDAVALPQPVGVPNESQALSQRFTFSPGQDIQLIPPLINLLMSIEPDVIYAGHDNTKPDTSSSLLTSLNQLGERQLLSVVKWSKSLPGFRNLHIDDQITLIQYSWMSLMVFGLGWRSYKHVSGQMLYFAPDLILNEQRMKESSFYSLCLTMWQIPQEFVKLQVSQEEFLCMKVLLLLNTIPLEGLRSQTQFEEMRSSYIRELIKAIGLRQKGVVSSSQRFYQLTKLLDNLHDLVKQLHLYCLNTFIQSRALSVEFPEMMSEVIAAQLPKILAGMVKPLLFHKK
Nature of the data set: Effects of progestins and antiprogestins on alkaline phosphatase activity in T47D cells. In kind it is cell-based. The note with it: antagonist mode in the presence of 1 nM progesterone, 24 h, read-out: T47D Alkaline Phosphatase Activity IC50 (nM) or % inhibition. The protocol:
(1) Effects of Progestins and Antiprogestins on Alkaline Phosphatase Activity in T47D Cells
PURPOSE: To identify progestins or antiprogestins by determining a compound's effect on alkaline phosphatase activity in T47D cells.
Culture Medium: • DMEM:F12 (1:1) (GIBCO, BRL) supplemented with 5% (v/v) charcoal stripped fetal bovine serum (not heat-inactivated), 100 U/mL penicillin, 100 μg/mL streptomycin, and 2 mM the GlutaMax™ reagent (GEBCO, BRL).
Alkaline phosphatase assay buffer: • I. 0.1M Tris-HCl, pH 9.8, containing 0.2% the Triton® X-100 reagent • II. 0.1M Tris-HCl, pH 9.8, containing 4 mM p-nitrophenyl phosphate (Sigma). B. Cell Culture and Treatment:
Frozen T47D cells were thawed in a 37° C. water bath and diluted to 280,000 cells/mL in culture medium. To each well in a 96-well plate (Falcon, Becton Dickinson Labware), 180 μL of diluted cell suspension was added.
Twenty μL of reference or test compounds diluted in the culture medium was then added to each well. […]
For reference and test compounds, a dose response curve was generated for dose (X-axis) vs. the rate of enzyme reaction (slope) (Y-axis). […] EC50 or IC50 values were calculated from the retransformed values. […]
Progesterone and trimegestone were reference progestins and RU486 was the reference antiprogestin. All reference compounds were run in full dose response curves and the EC50 and IC50 values were calculated.

`C[C@@H]1COC(=O)N1c1nc(-c2ccc(Br)cc2)cs1` [Example 1, (4R)-3-[4-(4-Bromophenyl)-1,3-thiazol-2-yl]-4-methyl-1,3-oxazolidin-2-one] showed a melting point of 197 to 199 °C. `CCC[C@@H]1COC(=O)N1c1nc(-c2ccc(Br)cc2)cs1` [Example 2, (4R)-3-[4-(4-Bromophenyl)-1,3-thiazol-2-yl]-4-propyl-1,3-oxazolidin-2-one] gave a melting point of 114 to 116 °C. `O=C1OCCCN1c1nc(-c2ccc(Br)cc2)cs1` [Example 3, 3-[4-(4-Bromophenyl)-1,3-thiazol-2-yl]-1,3-oxazinan-2-one] yielded a melting point of 225 to 227 °C. For the same compound, at progesterone receptor, the half-maximal inhibitory concentration (IC50) came to 238 nM. The like results for `CC1(C)COC(=O)N(c2nc(-c3ccc(Br)cc3)cs2)C1` [Example 4, 3-[4-(4-Bromophenyl)-1,3-thiazol-2-yl]-5,5-dimethyl-1,3-oxazinan-2-one] were, in that order, 169 to 171 °C and 1370 nM.
